Data as given in PubChem BioAssay (NCI).
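All cell lines were grown in 96-well plates and treated with compound for 48 hours. GI50: concentration for 50% inhibition of growth. The concentration for full growth arrest is given as TGI.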

Tests used:
Experiment in all cases: growth of human tumour cells (NCI), 48 h
HCT-116 colon = tested on: HCT-116 colon
COLO 205 colon = tested on: COLO 205 colon
RXF 393 renal = tested on: RXF 393 renal
NCI/ADR-RES ovarian = tested on: NCI/ADR-RES ovarian
NCI-H522 lung = tested on: NCI-H522 lung
T-47D breast = tested on: T-47D breast
SK-MEL-5 melanoma = tested on: SK-MEL-5 melanoma
OVCAR-5 ovarian = tested on: OVCAR-5 ovarian
NCI-H226 lung = tested on: NCI-H226 lung
TK-10 renal = tested on: TK-10 renal

SMILES	GI50 (HCT-116 colon) [µM]	TGI (HCT-116 colon) [µM]	GI50 (COLO 205 colon) [µM]	TGI (COLO 205 colon) [µM]	GI50 (RXF 393 renal) [µM]	TGI (RXF 393 renal) [µM]	GI50 (NCI/ADR-RES ovarian) [µM]	TGI (NCI/ADR-RES ovarian) [µM]	GI50 (NCI-H522 lung) [µM]	TGI (NCI-H522 lung) [µM]	GI50 (T-47D breast) [µM]	TGI (T-47D breast) [µM]	GI50 (SK-MEL-5 melanoma) [µM]	TGI (SK-MEL-5 melanoma) [µM]	GI50 (OVCAR-5 ovarian) [µM]	TGI (OVCAR-5 ovarian) [µM]	GI50 (NCI-H226 lung) [µM]	TGI (NCI-H226 lung) [µM]	GI50 (TK-10 renal) [µM]	TGI (TK-10 renal) [µM]
CCN(CC)c1ccc(/C=C\c2cc(C)c3cc(C)ccc3n2)cc1	3.2	> 100	3.67	18.5	3.99	> 100	3.1	> 100	1.49	5.19	1.11	> 100	1.71	4.57	17.7	> 100	7.29	> 100	5.11	36.7
C/C(=N/S(=O)(=O)c1ccc(Cl)c(Cl)c1)OCC(C)(C)C		> 100		> 100		> 100		> 100		> 100		> 100		> 100		> 100		> 100		> 100
CC(=O)OC[C@H]1O[C@@H](n2ccc(=O)[nH]c2=O)[C@H](OC(C)=O)[C@@H]1OC(C)=O	> 100	> 100	> 100	> 100	> 100	> 100	> 100	> 100	> 100	> 100	> 100	> 100	> 100	> 100	> 100	> 100	> 100	> 100	> 100	> 100
COc1ccccc1-[n+]1cc(-c2ccc(-c3ccccc3)cc2)n2c1CCCCC2	0.231	11.9	0.236	2.62	0.867	9.5	19.8	60.4	0.169	9.03	0.0774	11.9	0.166	0.475	0.668	16.6	0.773	13.4	0.638	13
c1ccc(Cc2nc3ccc(Nc4ncnc5ccccc45)cc3[nH]2)cc1	> 25	> 25	> 25	> 25	> 25	> 25	> 25	> 25	> 15.1	> 25	> 25	> 25	> 25	> 25	17.8	> 25	> 25	> 25	5.85	> 25
